Consider 31 molecules from patent US20080096861A1, “Chemical Compounds” (SMITHKLINE BEECHAM CORPORATION, priority 2004, published 2008).

The test system of this assay is HIV-1 IIIB. Briefly: HOS HIV-1 infectivity assay. In kind it is cell-based. Particulars: Human immunodeficiency virus 1, IIIB; as determined by the infectivity assay; strain not stated in Table 2; read-out: Activity Level. The method in brief:
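Engineered HOS reporter cells in 2% FCS medium received compound 1 h ahead of HIV-1 (~2 million RLU/well). Cultures ran 96 h at 37 °C before luciferase quantitation; parallel uninfected wells were scored for viability by CellTiter-Glo.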

In the case of `CN1CCCCC1CCCn1c(CN(C)C2CCCc3cccnc32)nc2ccccc21` (stereo not shown) [Example 59, N-Methyl-N-({1-[3-(1-methyl-2-piperidinyl)propyl]-1H-benzimidazol-2-yl}methyl)-5,6,7,8-tetrahydro-8-quinolinamine], the IC50 is 100 to 500 nM.

As to `CC(C)CCN(CCCn1c(CN(C)C2CCCc3cccnc32)nc2ccccc21)CCC(C)C` (stereo not shown) [Example 65, N-[(1-[3-[Bis(3-methylbutyl)amino]propyl]-1H-benzimidazol-2-yl)methyl]-N-methyl-5,6,7,8-tetrahydro-8-quinolinamine], the IC50 was in the range of 500 to 10000 nM.

For the molecule `CC(C)N1CCC[C@@H](Cn2c(CN(C)[C@@H]3CCCc4cccnc43)nc3ccccc32)C1` [Example 79, (8R)—N-Methyl-N-[(1-{[(3R)-1-(1-methylethyl)-3-piperidinyl]methyl}-1H-benzimidazol-2-yl)methyl]-5,6,7,8-tetrahydro-8-quinolinamine], the IC50 is under 100 nM.

On to `CN1CCC[C@H](Cn2c(CN(C)[C@H]3CCCc4cccnc43)nc3ccccc32)C1` [Example 39i, (8S)—N-Methyl-N-[(1-{[(3S)-1-methyl-3-piperidinyl]methyl}-1H-benzimidazol-2-yl)methyl]-5,6,7,8-tetrahydro-8-quinolinamine], for which the IC50 is under 100 nM.

Take `CC(C)N1CCC[C@@H](Cn2c(CN(C)[C@H]3CCCc4cccnc43)nc3ccccc32)C1` [Example 81, (8S)—N-Methyl-N-[(1-{[(3R)-1-(1-methylethyl)-3-piperidinyl]methyl}-1H-benzimidazol-2-yl)methyl]-5,6,7,8-tetrahydro-8-quinolinamine]: the IC50 was under 100 nM.

`CN(Cc1nc2ccccc2n1C[C@H]1CCCN(CCO)C1)[C@H]1CCCc2cccnc21` [Example 46, 2-((3S)-3-{[2-({Methyl[(8S)-5,6,7,8-tetrahydro-8-quinolinyl]amino}methyl)-1H-benzimidazol-1-yl]methyl}-1-piperidinyl)ethanol]: the IC50 is under 100 nM.

In the case of `CC(C)N1CCC[C@H](Cn2c(CN(CCCO)[C@H]3CCCc4cccnc43)nc3ccccc32)C1` [Example 100, 3-{[(1-{[(3S)-1-(1-Methylethyl)-3-piperidinyl]methyl}-1H-benzimidazol-2-yl)methyl][(8S)-5,6,7,8-tetrahydro-8-quinolinyl]amino}-1-propanol], the IC50 is under 100 nM.

On to `CN1CCC[C@@H](Cn2c(CN(C)[C@H]3CCCc4cccnc43)nc3ccccc32)C1` [Example 75f, (8S)—N-Methyl-N-[(1-{[(3R)-1-methyl-3-piperidinyl]methyl}-1H-benzimidazol-2-yl)methyl]-5,6,7,8-tetrahydro-8-quinolinamine], for which the IC50 is under 100 nM.

For the molecule `CN(Cc1nc2ccccc2n1CCCNC(=N)N)C1CCCc2cccnc21` (stereo not shown) [Example 61, N-[3-(2-{[Methyl(5,6,7,8-tetrahydro-8-quinolinyl)amino]methyl}-1H-benzimidazol-1-yl)propyl]guanidine], the IC50 was under 100 nM.

`CC(C)CCNCC(C)(C)Cn1c(CN(C)C2CCCc3cccnc32)nc2ccccc21` (stereo not shown) [Example 69, N-[(1-{2,2-Dimethyl-3-[(3-methylbutyl)amino]propyl}-1H-benzimidazol-2-yl)methyl]-N-methyl-5,6,7,8-tetrahydro-8-quinolinamine]: the IC50 fell in the range of 100 to 500 nM.

Regarding `CN(Cc1nc2ccccc2n1C1CCNCC1)C1CCCc2cccnc21` (stereo not shown) [Example 11h, N-Methyl-N-{[1-(4-piperidinyl)-1H-benzimidazol-2-yl]methyl}-5,6,7,8-tetrahydro-8-quinolinamine], the IC50 is under 100 nM.

As for `CN(Cc1nc2ccccc2n1Cc1ccccn1)C1CCCc2cccnc21` (stereo not shown) [Example 26, N-Methyl-N-{[1-(2-pyridinylmethyl)-1H-benzimidazol-2-yl]methyl}-5,6,7,8-tetrahydro-8-quinolinamine], the IC50 fell in the range of 500 to 10000 nM.

Regarding `CN(C)Cc1ccccc1-n1c(CN(C)C2CCCc3cccnc32)nc2ccccc21` (stereo not shown) [Example 74, N-[(1-{2-[(Dimethylamino)methyl]phenyl}-1H-benzimidazol-2-yl)methyl]-N-methyl-5,6,7,8-tetrahydro-8-quinolinamine], the IC50 was 500 to 10000 nM.

Regarding `CN(Cc1nc2ccccc2n1C[C@H]1CCCN(Cc2cccn2C)C1)[C@H]1CCCc2cccnc21` [Example 104, (8S)—N-Methyl-N-{[1-({(3S)-1-[(1-methyl-1H-pyrrol-2-yl)methyl]-3-piperidinyl}methyl)-1H-benzimidazol-2-yl]methyl}-5,6,7,8-tetrahydro-8-quinolinamine], the IC50 was under 100 nM.

Regarding `CN1CCC[C@H]1CN1CCC[C@H](Cn2c(CN(C)[C@H]3CCCc4cccnc43)nc3ccccc32)C1` [Example 106, (8S)—N-Methyl-N-({1-[((3S)-1-{[(2S)-1-methyl-2-pyrrolidinyl]methyl}-3-Piperidinyl)methyl]-1H-benzimidazol-2-yl}methyl)-5,6,7,8-tetrahydro-8-quinolinamine], the IC50 is under 100 nM.

`CN(C)Cc1cccc(Cn2c(CN(C)C3CCCc4cccnc43)nc3ccccc32)c1` (stereo not shown) [Example 48, N-{[1-({3-[(Dimethylamino)methyl]phenyl}methyl)-1H-benzimidazol-2-yl]methyl}-N-methyl-5,6,7,8-tetrahydro-8-quinolinamine]: the IC50 was 100 to 500 nM.

For the molecule `CN(Cc1nc2ccccc2n1C[C@@H]1CCCN(C(=N)N)C1)[C@H]1CCCc2cccnc21` [Example 87, (3S)-3-{[2-({Methyl[(8S)-5,6,7,8-tetrahydro-8-quinolinyl]amino}methyl)-1H-benzimidazol-1-yl]methyl}-1-piperidinecarboximidamide], the IC50 was under 100 nM.

`NCCCCn1c(CN(CCc2ccccc2)C2CCCc3cccnc32)nc2ccccc21` (stereo not shown) [Example 53, N-{[1-(4-Aminobutyl)-1H-benzimidazol-2-yl}methyl]-N-(2-phenylethyl)-5,6,7,8-tetrahydro-8-quinolinamine]: the IC50 fell in the range of 500 to 10000 nM.

With `CN(Cc1nc2ccccc2n1C[C@H]1CCCN(C(=N)N)C1)[C@H]1CCCc2cccnc21` [Example 89, (3R)-3-{[2-({Methyl[(8S)-5,6,7,8-tetrahydro-8-quinolinyl]amino}methyl)-1H-benzimidazol-1-yl]methyl}-1-piperidinecarboximidamide], the IC50 is under 100 nM.

With `NCCCn1c(CN(CCc2ccccc2)C2CCCc3cccnc32)nc2ccccc21` (stereo not shown) [Example 52, N-{[1-(3-Aminopropyl)-1H-benzimidazol-2-yl]methyl}-N-(2-phenylethyl)-5,6,7,8-tetrahydro-8-quinolinamine], the IC50 lay in the range of 500 to 10000 nM.

Regarding `CN(Cc1nc2ccccc2n1CC1CCNC1)C1CCCc2cccnc21` (stereo not shown) [Example 8c, N-Methyl-N-{[1-(3-pyrrolidinylmethyl)-1H-benzimidazol-2-yl]methyl}-5,6,7,8-tetrahydro-8-quinolinamine], the IC50 was under 100 nM.

In the case of `CN(Cc1nc2ccccc2n1C[C@H]1CCCN(Cc2cccnc2)C1)[C@H]1CCCc2cccnc21` [Example 41, (8S)—N-Methyl-N-[(1-{[(3S)-1-(3-pyridinylmethyl)-3-piperidinyl]methyl}-1H-benzimidazol-2-yl)methyl]-5,6,7,8-tetrahydro-8-quinolinamine], the IC50 was under 100 nM.

Turning to `CN(Cc1nc2ccccc2n1Cc1ccncc1)C1CCCc2cccnc21` (stereo not shown) [Example 27, N-Methyl-N-{[1-(4-pyridinylmethyl)-1H-benzimidazol-2-yl]methyl}-5,6,7,8-tetrahydro-8-quinolinamine], the IC50 was in the range of 100 to 500 nM.

For the molecule `CN(Cc1nc2ccccc2n1C[C@@H]1CCCN(C(=N)N)C1)[C@@H]1CCCc2cccnc21` [Example 86, (3S)-3-{[2-({Methyl[(8R)-5,6,7,8-tetrahydro-8-quinolinyl]amino}methyl)-1H-benzimidazol-1-yl]methyl}-1-piperidinecarboximidamide], the IC50 was 100 to 500 nM.

As for `CN1CCC[C@@H](Cn2c(CN(C)[C@@H]3CCCc4cccnc43)nc3ccccc32)C1` [Example 77, (8R)—N-Methyl-N-[(1-{[(3R)-1-methyl-3-piperidinyl]methyl}-1H-benzimidazol-2-yl)methyl]-5,6,7,8-tetrahydro-8-quinolinamine], the IC50 lay in the range of 100 to 500 nM.

As to `CN(Cc1nc2ccccc2n1CCc1cccnc1)C1CCCc2cccnc21` (stereo not shown) [Example 36], the IC50 was 100 to 500 nM.

As for `CC(C)CN(Cc1nc2ccccc2n1C[C@H]1CCCN(C(C)C)C1)[C@H]1CCCc2cccnc21` [Example 98, (8S)—N-[(1-{[(3S)-1-(1-Methylethyl)-3-piperidinyl]methyl}-1H-benzimidazol-2-yl)methyl]-N-(2-methylpropyl)-5,6,7,8-tetrahydro-8-quinolinamine], the IC50 fell in the range of 100 to 500 nM.

`CC(C)N1CCC[C@H](Cn2c(CN(CCO)[C@H]3CCCc4cccnc43)nc3ccccc32)C1` [Example 99, 2-{[(1-{[(3S)-1-(1-Methylethyl)-3-piperidinyl]methyl}-1H-benzimidazol-2-yl)methyl][(8S)-5,6,7,8-tetrahydro-8-quinolinyl]amino}ethanol]: the IC50 was under 100 nM.

With `CN1CCC[C@@H]1CN1CCC[C@H](Cn2c(CN(C)[C@H]3CCCc4cccnc43)nc3ccccc32)C1` [Example 108, (8S)—N-Methyl-N-([1-[((3S)-1-{[(2R)-1-methyl-2-pyrrolidinyl]methyl}-3-piperidinyl)methyl]-1H-benzimidazol-2-yl]methyl)-5,6,7,8-tetrahydro-8-quinolinamine], the IC50 was under 100 nM.

Turning to `CC(C)CCN(Cc1nc2ccccc2n1CCCCN)C1CCCc2cccnc21` (stereo not shown) [Example 54, N-{[1-(4-Aminobutyl)-1H-benzimidazol-2-yl]methyl}-N-(3-methylbutyl)-5,6,7,8-tetrahydro-8-quinolinamine], the IC50 is 100 to 500 nM.

`CN(C)Cc1ccccc1Cn1c(CN(C)C2CCCc3cccnc32)nc2ccccc21` (stereo not shown) [Example 50, N-{[1-({2-[(Dimethylamino)methyl]phenyl}methyl)-1H-benzimidazol-2-yl]methyl}-N-methyl-5,6,7,8-tetrahydro-8-quinolinamine]: the IC50 is 100 to 500 nM.
